The experiment has as its system EGFR driver alteration-positive NSCLC patients. As to the kind of experiment: Progression free survival from start of 1st line Osimertinib in a real-world clinico-genomic NSCLC cohort stratified by tumor heterogeneity score. Type of experiment: in vivo, human. The source says: Starting with a patient cohort of 15,035 patients, the data was filtered (for biopsy type and bait set). The data was then filtered to exclude data for patients for whom a computational tumor purity was less than or equal to 20% or for whom a computational tumor purity value was missing. The remaining patient data was divided according to whether the samples were early-stage specimens, late-stage specimens, or of ambiguous origin. For the late-stage specimens, data for patients who were first diagnosed prior to Jan. […] Finally, data was selected for N=135 1st line Osimertinib-treated, EGFR driver alteration-positive NSCLC patients for whom tumor samples were sequenced at most a year prior to start of therapy.
The group of 135 patients were then divided into three tertiles with 45 patients each. […] For patients without a subsequent line of therapy, the event date was the earliest progression event that occurred more than 14 days after the index date, or the date of death. • Censor date: patients with a subsequent line of therapy were censored at their last clinic note date if it occurred between the index date and the start date of the subsequent line of therapy plus 14 days. […]

Here are results for one molecule from patent publication US20260058014A1, “CHARACTERIZATION OF TUMOR HET[…] A […]” (Foundation Medicine, Inc., priority 2022, published 2026).

Each structure is given as a SMILES string.

Regarding `C=CC(=O)Nc1cc(Nc2nccc(-c3cn(C)c4ccccc34)n2)c(OC)cc1N(C)CCN(C)C` [Osimertinib], the mPFS came to 6.54 (Score category High, EGFR CCF category Low, N=12) and 16.01 (Score category Low, EGFR CCF category High, N=39).
